From ChEMBL document CHEMBL4229524, “Design, synthesis and preclinical evaluation of 5-methyl-N4-aryl-furo[2,3-d]pyrimidines as single agents with combination chemotherapy potential” (Bioorg Med Chem Lett, 2018)
One block for each compound: values may come before it. Calls of active or inactive are those of the source. The calls are words filed in the database; no cut-off is given here.

Tests used:
A-431 = assay: Cytotoxicity against human A431 cells over-expressing EGFR; assay type: functional, cell-based
[1] = target: T1, Platelet-derived growth factor receptor beta (Homo sapiens, UniProt P09619); assay: Inhibition of PDGF-BB-induced PDGFRbeta activation in human SH-SY5Y cells pretreated for 60 mins followed by PDGF-BB addition and measured after 10 mins by ELISA; assay type: cell-based
[2] = target: Epidermal growth factor receptor (Homo sapiens, UniProt P00533); assay type: cell-based
[3] = target: T2, Vascular endothelial growth factor receptor 2 (Homo sapiens, UniProt P35968); assay type: cell-based
Chorioallantoic membrane = assay: Antiangiogenic activity in Leghorn chicken embryo chorioallantoic membrane after 40 hrs by microscopic analysis; assay type: functional, tissue-based; conditions: Gallus gallus
A10 = assay: Induction of microtubule depolymerization in rat A10 cells after 18 hrs by indirect immunofluorescence method; assay type: functional, cell-based; conditions: A10, 18 h
[4] = Resistance index, ratio of IC50 for human SKOV3-MDR1-M6/6 cells to IC50 for human SKOV3 cells; assay type: functional
MDA-MB-435 [5] = assay: Antiproliferative activity against human MDA-MB-435 cells after 72 hrs by sulforhodamine B assay; assay type: functional, cell-based; conditions: MDA-MB-435, 72 h
HeLa = assay: Antiproliferative activity against human HeLa cells after 72 hrs by sulforhodamine B assay; assay type: functional, cell-based
[6] = Resistance index, ratio of IC50 for human HeLa cells to IC50 for human wild-type Hela-beta3 cells; assay type: functional
[7] = Antiproliferative activity against human wild-type Hela-beta3 cells after 72 hrs by sulforhodamine B assay; assay type: functional
[8] = Antiproliferative activity against human SKOV3-MDR1-M6/6 cells after 72 hrs by sulforhodamine B assay; assay type: functional; conditions: SKOV3-MDR1-M6/6, 72 h
SK-OV-3 = assay: Antiproliferative activity against human SKOV3 cells after 72 hrs by sulforhodamine B assay; assay type: functional, cell-based; conditions: SK-OV-3, 72 h
MDA-MB-231 [9] = assay: Antitumor activity against human MDA-MB-231 cells xenografted in sc dosed mouse assessed as reduction in cell viability administered daily for 4 days starting from 3 to 4 days post implantation measured post last dose by MTT based in-vivo hollow fiber assay; assay type: functional, organism-based
NCI-H23 [10] = assay: Antitumor activity against human NCI-H23 cells xenografted in ip dosed mouse assessed as reduction in cell viability administered daily for 4 days starting from 3 to 4 days post implantation measured post last dose by MTT based in-vivo hollow fiber assay; assay type: functional, organism-based
SF-295 [11] = assay: Antitumor activity against human SF295 cells xenografted in sc dosed mouse assessed as reduction in cell viability administered daily for 4 days starting from 3 to 4 days post implantation measured post last dose by MTT based in-vivo hollow fiber assay; assay type: functional, organism-based
Homo sapiens [12] = assay: Antitumor activity against human LOX cells xenografted in ip dosed mouse assessed as reduction in cell viability administered daily for 4 days starting from 3 to 4 days post implantation measured post last dose by MTT based in-vivo hollow fiber assay; assay type: functional, organism-based
U-251 [13] = assay: Antitumor activity against human U251 cells xenografted in sc dosed mouse assessed as reduction in cell viability administered daily for 4 days starting from 3 to 4 days post implantation measured post last dose by MTT based in-vivo hollow fiber assay; assay type: functional, organism-based
MDA-MB-231 [14] = assay: Antitumor activity against human MDA-MB-231 cells xenografted in ip dosed mouse assessed as reduction in cell viability administered daily for 4 days starting from 3 to 4 days post implantation measured post last dose by MTT based in-vivo hollow fiber assay; assay type: functional, organism-based
U-251 [15] = assay: Antitumor activity against human U251 cells xenografted in ip dosed mouse assessed as reduction in cell viability administered daily for 4 days starting from 3 to 4 days post implantation measured post last dose by MTT based in-vivo hollow fiber assay; assay type: functional, organism-based
OVCAR-5 [16] = assay: Antitumor activity against human OVCAR5 cells xenografted in sc dosed mouse assessed as reduction in cell viability administered daily for 4 days starting from 3 to 4 days post implantation measured post last dose by MTT based in-vivo hollow fiber assay; assay type: functional, organism-based
A498 [17] = assay: Antitumor activity against human A498 cells xenografted in athymic nude mouse assessed as reduction in tumor volume at 25 mg/kg, ip qd for 19 days measured post last dose up to 40 days; assay type: functional; parameters: scale not given: the % may be the effect or the level left
A498 [18] = assay: Antitumor activity against human A498 cells xenografted in athymic nude mouse assessed as reduction in tumor volume at 25 mg/kg, ip q2d for 19 days measured post last dose up to 40 days; assay type: functional; parameters: scale not given: the % may be the effect or the level left
A498 [19] = assay: Antitumor activity against human A498 cells xenografted in athymic nude mouse assessed as reduction in tumor volume at 25 mg/kg, ip q3d for 19 days measured post last dose up to 40 days; assay type: functional; parameters: scale not given: the % may be the effect or the level left
NCI-H522 [20] = assay: Antitumor activity against human NCI-H522 cells xenografted in athymic nude mouse; assay type: functional, cell-based
SF-295 [21] = assay: Antitumor activity against human SF295 cells xenografted in ip dosed mouse assessed as reduction in cell viability administered daily for 4 days starting from 3 to 4 days post implantation measured post last dose by MTT based in-vivo hollow fiber assay; assay type: functional, organism-based
COLO 205 [22] = assay: Antitumor activity against human COLO205 cells xenografted in sc dosed mouse assessed as reduction in cell viability administered daily for 4 days starting from 3 to 4 days post implantation measured post last dose by MTT based in-vivo hollow fiber assay; assay type: functional, organism-based
NCI-H23 [23] = assay: Antitumor activity against human NCI-H23 cells xenografted in sc dosed mouse assessed as reduction in cell viability administered daily for 4 days starting from 3 to 4 days post implantation measured post last dose by MTT based in-vivo hollow fiber assay; assay type: functional, organism-based
OVCAR-5 [24] = assay: Antitumor activity against human OVCAR5 cells xenografted in ip dosed mouse assessed as reduction in cell viability administered daily for 4 days starting from 3 to 4 days post implantation measured post last dose by MTT based in-vivo hollow fiber assay; assay type: functional, organism-based
[25] = target: T1, Platelet-derived growth factor receptor beta; assay: Potency index, ratio of sunitinib IC50 to test compound IC50 for PDGF-BB-induced PDGFRbeta activation in human SH-SY5Y cells; assay type: cell-based
[26] = target: T2, Vascular endothelial growth factor receptor 2; assay: Potency index, ratio of sunitinib IC50 to test compound IC50 for VEGF-induced VEGFR2 activation in human U251 cells; assay type: cell-based
NCI-H522 [27] = assay: Antitumor activity against human NCI-H522 cells xenografted in ip dosed mouse assessed as reduction in cell viability administered daily for 4 days starting from 3 to 4 days post implantation measured post last dose by MTT based in-vivo hollow fiber assay; assay type: functional, organism-based
Mus musculus [28] = assay: Toxicity in athymic nude mouse xenografted with human A498 cells assessed as body weight at 25 mg/kg, ip qd for 19 days measured post last dose relative to control; assay type: organism-based; conditions: in vivo, 456 h
Mus musculus [29] = assay: Toxicity in athymic nude mouse assessed as survival at 12.5 to 50 mg/kg, po administered as single dose; assay type: organism-based; conditions: in vivo
SW-620 [30] = assay: Antitumor activity against human SW620 cells xenografted in ip dosed mouse assessed as reduction in cell viability administered daily for 4 days starting from 3 to 4 days post implantation measured post last dose by MTT based in-vivo hollow fiber assay; assay type: functional, organism-based
Mus musculus [31] = assay: Toxicity in athymic nude mouse xenografted with human A498 cells assessed as body weight at 25 mg/kg, ip q2d for 19 days measured post last dose relative to control; assay type: organism-based; conditions: in vivo, 456 h
OVCAR-3 [32] = assay: Antitumor activity against human OVCAR3 cells xenografted in ip dosed mouse assessed as reduction in cell viability administered daily for 4 days starting from 3 to 4 days post implantation measured post last dose by MTT based in-vivo hollow fiber assay; assay type: functional, organism-based
Mus musculus [33] = assay: Toxicity in athymic nude mouse assessed as death at 100 mg/kg, po administered as single dose measured after 4 days; assay type: organism-based; conditions: in vivo, 96 h
MDA-MB-435 [34] = assay: Antitumor activity against human MDA-MB-435 cells xenografted in ip dosed mouse assessed as reduction in cell viability administered daily for 4 days starting from 3 to 4 days post implantation measured post last dose by MTT based in-vivo hollow fiber assay; assay type: functional, organism-based
UACC-62 [35] = assay: Antitumor activity against human UACC62 cells xenografted in sc dosed mouse assessed as reduction in cell viability administered daily for 4 days starting from 3 to 4 days post implantation measured post last dose by MTT based in-vivo hollow fiber assay; assay type: functional, organism-based
Homo sapiens [36] = assay: Antitumor activity against human LOX cells xenografted in sc dosed mouse assessed as reduction in cell viability administered daily for 4 days starting from 3 to 4 days post implantation measured post last dose by MTT based in-vivo hollow fiber assay; assay type: functional, organism-based
COLO 205 [37] = assay: Antitumor activity against human COLO205 cells xenografted in ip dosed mouse assessed as reduction in cell viability administered daily for 4 days starting from 3 to 4 days post implantation measured post last dose by MTT based in-vivo hollow fiber assay; assay type: functional, organism-based
Mus musculus [38] = assay: Toxicity in athymic nude mouse xenografted with human A498 cells assessed as body weight at 25 mg/kg, ip q3d for 19 days measured post last dose relative to control; assay type: organism-based; conditions: in vivo, 456 h
NCI-H522 [39] = assay: Antitumor activity against human NCI-H522 cells xenografted in sc dosed mouse assessed as reduction in cell viability administered daily for 4 days starting from 3 to 4 days post implantation measured post last dose by MTT based in-vivo hollow fiber assay; assay type: functional, organism-based
SW-620 [40] = assay: Antitumor activity against human SW620 cells xenografted in sc dosed mouse assessed as reduction in cell viability administered daily for 4 days starting from 3 to 4 days post implantation measured post last dose by MTT based in-vivo hollow fiber assay; assay type: functional, organism-based
OVCAR-3 [41] = assay: Antitumor activity against human OVCAR3 cells xenografted in sc dosed mouse assessed as reduction in cell viability administered daily for 4 days starting from 3 to 4 days post implantation measured post last dose by MTT based in-vivo hollow fiber assay; assay type: functional, organism-based
Mus musculus [42] = assay: Toxicity in athymic nude mouse assessed as death at 250 to 500 mg/kg, po administered as single dose measured after 1 day; assay type: organism-based; conditions: in vivo, 24 h
MDA-MB-435 [43] = assay: Antitumor activity against human MDA-MB-435 cells xenografted in sc dosed mouse assessed as reduction in cell viability administered daily for 4 days starting from 3 to 4 days post implantation measured post last dose by MTT based in-vivo hollow fiber assay; assay type: functional, organism-based
COLO 205 [44] = assay: Antitumor activity against human COLO205 cells xenografted in athymic nude mouse; assay type: functional, cell-based
UACC-62 [45] = assay: Antitumor activity against human UACC62 cells xenografted in ip dosed mouse assessed as reduction in cell viability administered daily for 4 days starting from 3 to 4 days post implantation measured post last dose by MTT based in-vivo hollow fiber assay; assay type: functional, organism-based

T2 sequence (P35968 whole entry): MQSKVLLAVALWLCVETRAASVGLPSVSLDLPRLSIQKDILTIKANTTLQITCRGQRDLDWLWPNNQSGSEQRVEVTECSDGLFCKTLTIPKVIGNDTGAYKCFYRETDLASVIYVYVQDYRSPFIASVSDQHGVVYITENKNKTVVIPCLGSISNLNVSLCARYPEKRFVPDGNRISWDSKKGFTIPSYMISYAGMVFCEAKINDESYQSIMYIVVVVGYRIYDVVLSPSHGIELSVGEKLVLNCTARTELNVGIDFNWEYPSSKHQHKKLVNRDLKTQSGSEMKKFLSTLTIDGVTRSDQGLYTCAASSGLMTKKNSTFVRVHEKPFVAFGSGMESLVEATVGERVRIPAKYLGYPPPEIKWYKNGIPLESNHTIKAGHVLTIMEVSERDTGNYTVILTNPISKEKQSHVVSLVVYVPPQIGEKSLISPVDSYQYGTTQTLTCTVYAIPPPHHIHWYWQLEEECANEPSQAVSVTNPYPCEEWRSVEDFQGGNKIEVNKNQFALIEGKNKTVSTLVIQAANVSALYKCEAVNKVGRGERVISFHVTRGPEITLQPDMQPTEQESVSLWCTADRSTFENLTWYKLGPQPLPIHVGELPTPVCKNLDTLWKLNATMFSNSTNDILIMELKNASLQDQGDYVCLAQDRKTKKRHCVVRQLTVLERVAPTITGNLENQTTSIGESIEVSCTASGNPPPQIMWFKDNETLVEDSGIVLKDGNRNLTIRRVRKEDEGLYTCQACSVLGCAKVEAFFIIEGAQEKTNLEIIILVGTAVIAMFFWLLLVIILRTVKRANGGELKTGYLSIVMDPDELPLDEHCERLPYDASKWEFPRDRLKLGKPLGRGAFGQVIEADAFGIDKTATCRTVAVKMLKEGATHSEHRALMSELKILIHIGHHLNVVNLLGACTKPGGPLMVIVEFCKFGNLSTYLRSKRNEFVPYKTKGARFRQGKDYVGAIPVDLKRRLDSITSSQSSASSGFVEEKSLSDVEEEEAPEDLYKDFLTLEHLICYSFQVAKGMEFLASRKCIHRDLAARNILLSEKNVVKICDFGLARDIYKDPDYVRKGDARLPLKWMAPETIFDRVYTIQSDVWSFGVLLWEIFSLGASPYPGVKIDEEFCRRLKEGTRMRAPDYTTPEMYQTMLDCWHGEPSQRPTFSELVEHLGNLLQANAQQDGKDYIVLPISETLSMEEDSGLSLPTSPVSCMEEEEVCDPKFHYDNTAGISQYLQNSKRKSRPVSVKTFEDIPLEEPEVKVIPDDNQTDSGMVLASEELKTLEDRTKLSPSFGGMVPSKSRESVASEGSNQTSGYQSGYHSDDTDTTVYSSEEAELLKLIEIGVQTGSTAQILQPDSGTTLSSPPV
T1 sequence (P09619 whole entry): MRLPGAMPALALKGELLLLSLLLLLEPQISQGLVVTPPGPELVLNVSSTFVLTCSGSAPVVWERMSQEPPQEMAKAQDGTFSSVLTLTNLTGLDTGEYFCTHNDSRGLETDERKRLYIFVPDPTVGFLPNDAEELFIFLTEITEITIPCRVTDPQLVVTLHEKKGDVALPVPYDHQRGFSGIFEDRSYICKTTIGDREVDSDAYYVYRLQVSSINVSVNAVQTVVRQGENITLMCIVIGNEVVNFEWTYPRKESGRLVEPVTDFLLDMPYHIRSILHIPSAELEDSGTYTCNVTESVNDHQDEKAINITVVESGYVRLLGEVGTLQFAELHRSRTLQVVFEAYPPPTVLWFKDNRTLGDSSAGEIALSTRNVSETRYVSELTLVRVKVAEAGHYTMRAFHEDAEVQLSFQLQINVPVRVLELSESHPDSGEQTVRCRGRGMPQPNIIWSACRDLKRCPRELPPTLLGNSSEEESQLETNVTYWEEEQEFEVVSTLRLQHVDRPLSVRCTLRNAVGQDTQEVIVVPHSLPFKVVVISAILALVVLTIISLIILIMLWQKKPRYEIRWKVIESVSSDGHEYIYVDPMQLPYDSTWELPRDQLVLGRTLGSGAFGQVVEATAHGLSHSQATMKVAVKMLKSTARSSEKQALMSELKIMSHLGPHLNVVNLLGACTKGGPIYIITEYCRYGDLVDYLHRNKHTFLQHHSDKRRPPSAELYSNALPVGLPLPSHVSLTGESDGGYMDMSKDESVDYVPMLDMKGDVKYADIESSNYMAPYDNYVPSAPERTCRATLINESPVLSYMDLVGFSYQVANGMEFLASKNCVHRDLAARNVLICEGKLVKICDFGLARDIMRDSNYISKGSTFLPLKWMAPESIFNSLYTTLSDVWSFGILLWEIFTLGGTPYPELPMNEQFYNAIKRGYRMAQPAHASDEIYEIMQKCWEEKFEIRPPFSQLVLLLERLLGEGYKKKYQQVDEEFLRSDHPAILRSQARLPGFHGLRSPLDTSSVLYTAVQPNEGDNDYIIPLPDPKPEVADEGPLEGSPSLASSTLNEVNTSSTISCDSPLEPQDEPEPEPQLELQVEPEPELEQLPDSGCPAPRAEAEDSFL
Chain of Epidermal growth factor receptor (P00533 whole entry): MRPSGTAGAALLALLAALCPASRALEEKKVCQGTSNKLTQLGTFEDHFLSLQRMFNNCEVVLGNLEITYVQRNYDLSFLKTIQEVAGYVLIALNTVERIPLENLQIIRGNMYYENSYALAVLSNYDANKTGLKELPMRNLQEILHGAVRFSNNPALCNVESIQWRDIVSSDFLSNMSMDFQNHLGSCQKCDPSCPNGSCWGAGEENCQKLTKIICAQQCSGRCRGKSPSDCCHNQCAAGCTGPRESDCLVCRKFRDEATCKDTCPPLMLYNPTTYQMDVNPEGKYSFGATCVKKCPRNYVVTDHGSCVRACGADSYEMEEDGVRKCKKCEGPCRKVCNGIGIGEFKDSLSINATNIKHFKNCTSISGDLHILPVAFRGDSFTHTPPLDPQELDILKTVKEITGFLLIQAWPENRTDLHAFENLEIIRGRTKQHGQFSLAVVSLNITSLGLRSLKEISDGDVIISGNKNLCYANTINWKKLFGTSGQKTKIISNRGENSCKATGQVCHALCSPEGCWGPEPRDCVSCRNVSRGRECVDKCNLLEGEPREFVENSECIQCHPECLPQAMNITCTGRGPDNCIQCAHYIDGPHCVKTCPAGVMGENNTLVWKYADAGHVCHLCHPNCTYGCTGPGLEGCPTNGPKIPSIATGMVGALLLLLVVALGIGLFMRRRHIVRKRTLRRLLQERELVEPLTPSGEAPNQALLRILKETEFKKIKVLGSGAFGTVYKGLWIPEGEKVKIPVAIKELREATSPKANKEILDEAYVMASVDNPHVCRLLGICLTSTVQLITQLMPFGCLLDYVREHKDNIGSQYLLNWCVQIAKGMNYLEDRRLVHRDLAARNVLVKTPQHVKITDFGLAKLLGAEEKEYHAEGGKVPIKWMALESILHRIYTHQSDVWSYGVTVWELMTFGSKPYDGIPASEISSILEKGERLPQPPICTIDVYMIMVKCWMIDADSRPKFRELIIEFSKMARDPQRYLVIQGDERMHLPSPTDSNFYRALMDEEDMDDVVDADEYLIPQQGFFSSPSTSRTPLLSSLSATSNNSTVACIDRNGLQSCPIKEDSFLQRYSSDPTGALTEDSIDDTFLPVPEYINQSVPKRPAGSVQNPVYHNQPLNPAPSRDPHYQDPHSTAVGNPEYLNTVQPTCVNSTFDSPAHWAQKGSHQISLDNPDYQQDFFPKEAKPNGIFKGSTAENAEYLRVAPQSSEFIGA

IC50 [1]: 51.4 nM
IC50 [2]: 92.5 nM
IC50 [3]: 67.3 nM
SMILES: CCN(c1ccc(OC)cc1)c1ncnc2occ(C)c12
IC50 (A-431): 3.4 nM
IC50 (Chorioallantoic membrane): 812 nM

EC50 (A10): 240 nM
IC50 (MDA-MB-435 [5]): 74 nM
IC50 (HeLa): 74 nM
IC50 [1]: 57.8 nM
IC50 [2]: 6.4 nM
IC50 [3]: 12.7 nM
IC50 (SK-OV-3): 95 nM
SMILES: CNc1ccc(N(C)c2ncnc3occ(C)c23)cc1
Ratio IC50 [4]: 1.1
IC50 (A-431): 2.9 nM
Ratio IC50 [6]: 1.2
IC50 [7]: 86 nM
IC50 [8]: 101 nM
IC50 (Chorioallantoic membrane): 707 nM

SMILES: COc1ccc(N(C)c2ncnc3occ(C)c23)cc1
Activity (MDA-MB-231 [9]): Active
Activity (NCI-H23 [10]): Active
Activity (SF-295 [11]): Active
Activity (Homo sapiens [12]): Active
Activity (U-251 [13]): Active
Activity (MDA-MB-231 [14]): Active
Activity (U-251 [15]): Active
Activity (OVCAR-5 [16]): Active
Activity (A498 [17]): 25 - 50%
IC50 (A-431): 5.1 nM
Activity (A498 [18]): 25 - 50%
Activity (A498 [19]): 25 - 50%
Activity (NCI-H522 [20]): inactive
Activity (SF-295 [21]): Active
Activity (COLO 205 [22]): Active
Activity (NCI-H23 [23]): Active
Activity (OVCAR-5 [24]): Active
Ratio IC50 [25]: 7
Ratio IC50 [26]: 2
Activity (NCI-H522 [27]): Active
T/C (Mus musculus [28]): 47%
IC50 [1]: 12.3 nM
MSD (Mus musculus [29]): 15 days
Activity (SW-620 [30]): Active
T/C (Mus musculus [31]): 38%
Activity (OVCAR-3 [32]): Active
IC50 [2]: 15.5 nM
Activity (Mus musculus [33]): Toxic
Activity (MDA-MB-435 [34]): Active
IC50 [3]: 9.3 nM
Activity (UACC-62 [35]): Active
Activity (Homo sapiens [36]): Active
Activity (COLO 205 [37]): Active
T/C (Mus musculus [38]): 71%
Activity (NCI-H522 [39]): Active
Activity (SW-620 [40]): Active
Activity (OVCAR-3 [41]): Active
Activity (Mus musculus [42]): Toxic
IC50 (Chorioallantoic membrane): 80 nM
Activity (MDA-MB-435 [43]): Active
Activity (COLO 205 [44]): inactive
Activity (UACC-62 [45]): Active
